In patent publication US20240174662A1, “SMALL MOLECULE INHIBITORS OF SALT INDUCIBLE KINASES” (Janssen Biotech, Inc., priority 2021, published 2024):

Molecular target: SIK2 (Homo sapiens (Human), UniProt Q9H0K1)
Assay: SIK2 Enzymatic Assay Version 2 (High ATP)
Format: biochemical
Details: 3 mM ATP and 200 μM HDAC5tide final, ADP-Glo Max luminescence
Method in brief: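 Run at room temperature; SIK2 enzyme at 6 nM (2× final) preincubated with compound 30 min before reaction. ADP formation detected by ADP-Glo Max (2 h reagent, 1 h detection) with luminescence read-out.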

Sequence of SIK2 (Q9H0K1 whole entry, species assumed): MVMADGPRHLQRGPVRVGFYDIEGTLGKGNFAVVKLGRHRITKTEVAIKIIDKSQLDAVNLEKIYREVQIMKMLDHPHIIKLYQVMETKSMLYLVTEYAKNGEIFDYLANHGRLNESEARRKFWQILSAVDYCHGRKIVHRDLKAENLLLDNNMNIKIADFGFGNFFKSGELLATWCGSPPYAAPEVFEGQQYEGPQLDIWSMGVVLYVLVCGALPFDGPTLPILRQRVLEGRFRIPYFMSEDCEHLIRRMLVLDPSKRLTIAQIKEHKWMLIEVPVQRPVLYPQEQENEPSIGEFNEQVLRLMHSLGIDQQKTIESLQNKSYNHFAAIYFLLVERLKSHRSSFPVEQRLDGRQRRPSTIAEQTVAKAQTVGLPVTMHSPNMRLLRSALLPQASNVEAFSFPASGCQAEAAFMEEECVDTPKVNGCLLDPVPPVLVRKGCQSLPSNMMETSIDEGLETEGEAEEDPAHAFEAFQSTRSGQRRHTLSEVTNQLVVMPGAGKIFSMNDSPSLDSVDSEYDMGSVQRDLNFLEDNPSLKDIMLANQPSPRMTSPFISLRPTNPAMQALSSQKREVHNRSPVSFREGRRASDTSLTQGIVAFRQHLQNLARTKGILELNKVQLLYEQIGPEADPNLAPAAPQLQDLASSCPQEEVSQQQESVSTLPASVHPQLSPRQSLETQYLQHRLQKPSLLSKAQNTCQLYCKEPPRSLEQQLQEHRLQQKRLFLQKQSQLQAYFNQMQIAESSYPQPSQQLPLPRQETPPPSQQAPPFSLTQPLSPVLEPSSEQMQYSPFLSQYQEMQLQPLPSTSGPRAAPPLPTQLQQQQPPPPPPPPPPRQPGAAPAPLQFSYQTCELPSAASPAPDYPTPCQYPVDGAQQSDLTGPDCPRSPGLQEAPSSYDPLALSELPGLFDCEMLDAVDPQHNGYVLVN

SMILES | IC50 [nM]
CO[C@H]1CNC[C@H]1Oc1noc(C)c1-c1ccn2nc(Nc3cc(C)nc(C)n3)cc2c1 [Example 94, N-(2,6-dimethylpyrimidin-4-yl)-5-[3-[(3R,4S)-4-methoxypyrrolidin-3-yl]oxy-5-methyl-isoxazol-4-yl]pyrazolo[1,5-a]pyridin-2-amine] | 10.3
Cc1ccc(Nc2cc3cc(-c4c(O[C@H]5CCN(C)C5)cnn4C)ccn3n2)cn1 [Example 451, 5-[2-methyl-4-[(3S)-1-methylpyrrolidin-3-yl]oxy-pyrazol-3-yl]-N-(6-methyl-3-pyridyl)pyrazolo[1,5-a]pyridin-2-amine] | 107
Cn1ncc(O[C@H]2CCNC2)c1-c1ccc2nc(NC(=O)C3CC3)cn2c1 [Example 471, N-[6-[2-methyl-4-[(3S)-pyrrolidin-3-yl]oxy-pyrazol-3-yl]imidazo[1,2-a]pyridin-2-yl]cyclopropanecarboxamide] | 55.8
Cc1cc(Nc2cc3cc(-c4c(O[C@H]5CCN(C)C5)cnn4C)ccn3n2)nc(C)n1 [Example 267, N-(2,6-dimethylpyrimidin-4-yl)-5-[2-methyl-4-[(3S)-1-methylpyrrolidin-3-yl]oxy-pyrazol-3-yl]pyrazolo[1,5-a]pyridin-2-amine] | 29.8
CCN1CC[C@@H]1COc1cnn(C)c1-c1ccn2nc(Nc3cc(C)nc(C)n3)cc2c1 [Example 62, N-(2,6-dimethylpyrimidin-4-yl)-5-[4-[[(2R)-1-ethylazetidin-2-yl]methoxy]-2-methyl-pyrazol-3-yl]pyrazolo[1,5-a]pyridin-2-amine] | 0.9
CN1CC(C)(COc2cnn(C)c2-c2ccn3nc(NC(=O)C4CC4)cc3c2)C1 [Example 314, N-[5-[4-[(1,3-dimethylazetidin-3-yl)methoxy]-2-methyl-pyrazol-3-yl]pyrazolo[1,5-a]pyridin-2-yl]cyclopropanecarboxamide] | 30.4
Cc1onc(O[C@@H]2CCNC[C@H]2F)c1-c1ccn2nc(NC(=O)C3CC3)cc2c1 (single isomer, unassigned) [Example 216, N-(5-(3-(((3*R,4*S)-3-fluoropiperidin-4-yl)oxy)-5-methylisoxazol-4-yl)pyrazolo[1,5-a]pyridin-2-yl)cyclopropanecarboxamide] | 29.6
Cc1cc(Nc2cc3cc(-c4c(OC[C@H]5CCN5C)cnn4C)ccn3n2)nc(C)n1 [Example 2, N-(2,6-dimethylpyrimidin-4-yl)-5-[2-methyl-4-[[(2R)-1-methylazetidin-2-yl]methoxy]pyrazol-3-yl]pyrazolo[1,5-a]pyridin-2-amine] | < 0.847
Cc1onc(OCC2(F)CNC2)c1-c1ccn2nc(NC(=O)C3CC3)cc2c1 [Example 83, N-[5-[3-[(3-fluoroazetidin-3-yl)methoxy]-5-methyl-isoxazol-4-yl]pyrazolo[1,5-a]pyridin-2-yl]cyclopropanecarboxamide] | 10.9
COCCN1CCC[C@@H]1COc1cnn(C)c1-c1ccn2nc(NC(=O)C3CC3)cc2c1 [Example 428, N-[5-[4-[[(2R)-1-(2-methoxyethyl)pyrrolidin-2-yl]methoxy]-2-methyl-pyrazol-3-yl]pyrazolo[1,5-a]pyridin-2-yl]cyclopropanecarboxamide] | 183
CN1CC[C@@H]1COc1cnn(C)c1-c1ccn2nc(Nc3cnc(C(=O)NCC(C)(C)O)cn3)cc2c1 [Example 132, N-(2-hydroxy-2-methyl-propyl)-5-[[5-[2-methyl-4-[[(2R)-1-methylazetidin-2-yl]methoxy]pyrazol-3-yl]pyrazolo[1,5-a]pyridin-2-yl]amino]pyrazine-2-carboxamide] | 8.9
Cc1cc(Nc2cc3cc(-c4c(OC[C@H]5C[C@H](O)C5)cnn4C)ccn3n2)nc(C)n1 [Example 438, 3-[[5-[2-[(2,6-dimethylpyrimidin-4-yl)amino]pyrazolo[1,5-a]pyridin-5-yl]-1-methyl-pyrazol-4-yl]oxymethyl]cyclobutanol] | 88
[2H]C([2H])([2H])N1CC[C@@H]1COc1cnn(C([2H])([2H])[2H])c1-c1ccn2nc(Nc3cc(C)nc(C)n3)cc2c1 [Example 355, N-(2,6-dimethylpyrimidin-4-yl)-5-[2-(trideuteriomethyl)-4-[[(2R)-1-(trideuteriomethyl)azetidin-2-yl]methoxy]pyrazol-3-yl]pyrazolo[1,5-a]pyridin-2-amine] | < 0.847
CCN1CC[C@@H]1COc1cnn(C(F)F)c1-c1ccn2nc(Nc3cnn(C)c3)cc2c1 [Example 104, 5-[2-(difluoromethyl)-4-[[(2R)-1-ethylazetidin-2-yl]methoxy]pyrazol-3-yl]-N-(1-methylpyrazol-4-yl)pyrazolo[1,5-a]pyridin-2-amine] | 16.9
Cc1onc(OC[C@H](c2ccccn2)N(C)C)c1-c1ccn2nc(NC(=O)C3CC3)cc2c1 [Example 325, N-[5-[3-[(2S)-2-(dimethylamino)-2-(2-pyridyl)ethoxy]-5-methyl-isoxazol-4-yl]pyrazolo[1,5-a]pyridin-2-yl]cyclopropanecarboxamide] | 63.2
Cc1cnc(Nc2cc3cc(-c4c(O[C@@H]5CN[C@H](C)C5)noc4C)ccn3n2)cn1 [Example 322, 5-[5-methyl-3-[(3S,5R)-5-methylpyrrolidin-3-yl]oxy-isoxazol-4-yl]-N-(5-methylpyrazin-2-yl)pyrazolo[1,5-a]pyridin-2-amine] | 46.3
Cc1onc(O[C@@H]2CCNC3(CCC3)C2)c1-c1ccn2nc(NC(=O)C3CC3)cc2c1 (single isomer, unassigned) [Example 218, (*R)—N-[5-[3-(9-azaspiro[3.5]nonan-6-yloxy)-5-methyl-isoxazol-4-yl]pyrazolo[1,5-a]pyridin-2-yl]cyclopropanecarboxamide] | 49.5
Cn1ncc(OC[C@H]2CCN2C[C@@H]2CCCO2)c1-c1ccn2nc(NC(=O)C3CC3)cc2c1 (relative stereo) [Example 353, (*S)—N-[5-[2-methyl-4-[[1-(tetrahydrofuran-2-ylmethyl)azetidin-2-yl]methoxy]pyrazol-3-yl]pyrazolo[1,5-a]pyridin-2-yl]cyclopropanecarboxamide] | 67.9
Cc1onc(OC[C@H]2N(C)CC2(C)C)c1-c1ccn2nc(NC(=O)C3CC3)cc2c1 [Example 321, N-[5-[5-methyl-3-[[(2S)-1,3,3-trimethylazetidin-2-yl]methoxy]isoxazol-4-yl]pyrazolo[1,5-a]pyridin-2-yl]cyclopropanecarboxamide] | 52.6
CN1CCC1(C)COc1cnn(C)c1-c1ccn2nc(NC(=O)C3CC3)cc2c1 (racemic) [Example 54, (rac)-N-[5-[4-[(1,2-dimethylazetidin-2-yl)methoxy]-2-methyl-pyrazol-3-yl]pyrazolo[1,5-a]pyridin-2-yl]cyclopropanecarboxamide] | 178
CN1CC[C@H](Oc2cnn(C)c2-c2ccn3nc(Nc4cnc5c(ccn5C)c4)cc3c2)C1 [Example 460, 1-methyl-N-[5-[2-methyl-4-[(3S)-1-methylpyrrolidin-3-yl]oxy-pyrazol-3-yl]pyrazolo[1,5-a]pyridin-2-yl]pyrrolo[2,3-b]pyridin-5-amine] | 164
Cc1cnc(Nc2cc3cc(-c4c(OC[C@H]5CCN5C[C@H](C)O)cnn4C)ccn3n2)cn1 [Example 296, (2S)-1-[(2R)-2-[[1-methyl-5-[2-[(5-methylpyrazin-2-yl)amino]pyrazolo[1,5-a]pyridin-5-yl]pyrazol-4-yl]oxymethyl]azetidin-1-yl]propan-2-ol] | 6.2
Cc1onc(OC[C@H](N)c2ccccc2F)c1-c1ccn2nc(NC(=O)C3CC3)cc2c1 [Example 221, N-[5-[3-[(2R)-2-amino-2-(2-fluorophenyl)ethoxy]-5-methyl-isoxazol-4-yl]pyrazolo[1,5-a]pyridin-2-yl]cyclopropanecarboxamide] | 23.2
Cc1cncc(Nc2cc3cc(-c4c(CO[C@H]5CN(C)C[C@H]5C)cnn4C)ccn3n2)n1 (stereo in doubt) [Example 370, CIS-Rac-5-[4-[(1,4-dimethylpyrrolidin-3-yl)oxymethyl]-2-methyl-pyrazol-3-yl]-N-(6-methylpyrazin-2-yl)pyrazolo[1,5-a]pyridin-2-amine] | 2.9
CCN1CC[C@@H]1COc1cnn(C)c1-c1ccn2nc(Nc3cc(C)nc(C4CC4)n3)cc2c1 [Example 171, N-(2-cyclopropyl-6-methyl-pyrimidin-4-yl)-5-[4-[[(2R)-1-ethylazetidin-2-yl]methoxy]-2-methyl-pyrazol-3-yl]pyrazolo[1,5-a]pyridin-2-amine] | < 0.847
CCN1CC[C@@H]1COc1cnn(C)c1-c1ccn2nc(Nc3ccnc(C(F)(F)F)n3)cc2c1 [Example 161, 5-[4-[[(2R)-1-ethylazetidin-2-yl]methoxy]-2-methyl-pyrazol-3-yl]-N-[2-(trifluoromethyl)pyrimidin-4-yl]pyrazolo[1,5-a]pyridin-2-amine] | < 0.847
Cn1ncc(OC[C@H](N)c2ccccc2)c1-c1ccn2nc(NC(=O)C3CC3)cc2c1 [Example 237, N-[5-[4-[(2R)-2-amino-2-phenyl-ethoxy]-2-methyl-pyrazol-3-yl]pyrazolo[1,5-a]pyridin-2-yl]cyclopropanecarboxamide] | 10.7
CCN1CC[C@@H]1COc1cnn(C)c1-c1ccc2nc(Nc3cc(C)nc(C)n3)cn2c1 [Example 476, N-(2,6-dimethylpyrimidin-4-yl)-6-[4-[[(2R)-1-ethylazetidin-2-yl]methoxy]-2-methyl-pyrazol-3-yl]imidazo[1,2-a]pyridin-2-amine] | 3.1
Cn1ncc(COC2(C)CNC2)c1-c1ccn2nc(NC(=O)C3CC3)cc2c1 [Example 191, N-[5-[2-methyl-4-[(3-methylazetidin-3-yl)oxymethyl]pyrazol-3-yl]pyrazolo[1,5-a]pyridin-2-yl]cyclopropanecarboxamide] | 11.3
Cc1cc(Nc2cc3cc(-c4c(OC[C@H]5CCN5C)noc4C)ccn3n2)nc(C)n1 [Example 91, N-(2,6-dimethylpyrimidin-4-yl)-5-[5-methyl-3-[[(2R)-1-methylazetidin-2-yl]methoxy]isoxazol-4-yl]pyrazolo[1,5-a]pyridin-2-amine] | 6.4
